According to the NIST ThermoML archive (doi:10.1021/je0504212):
± gives the expanded uncertainty stated by the source.

Experiments:
[1] = 308.5 K; 101.33 kPa; Liquid
[2] = excess molar enthalpy (molar enthalpy of mixing); xn = mol fraction of the nth substance listed; settings: 308.15 K, 101 kPa, Liquid, Flow calorimetry

COCCOC [1,2-dimethoxyethane]
Settings	mass density [kg/m3]
[1]	850.28 ± 0.56

OCCOCCOCCO [triethylene glycol]
Settings	mass density [kg/m3]
[1]	1112.59 ± 0.64

CCOCCOCCOCC [diethylene glycol diethyl ether] + OCc1ccccc1
[2]
Settings	excess molar enthalpy [kcal/mol]
x1 = 0.0234	-0.0401 ± 0.000502
x1 = 0.0458	-0.0728 ± 0.000741
x1 = 0.0672	-0.09959 ± 0.000956
x1 = 0.0876	-0.1215 ± 0.00112
x1 = 0.1259	-0.1547 ± 0.00139
x1 = 0.1611	-0.1773 ± 0.00155
x1 = 0.2236	-0.203 ± 0.00177
x1 = 0.2774	-0.2131 ± 0.00184
x1 = 0.3655	-0.2129 ± 0.00184
x1 = 0.4635	-0.1973 ± 0.00172
x1 = 0.5353	-0.1792 ± 0.00158
x1 = 0.6334	-0.1493 ± 0.00134
x1 = 0.6973	-0.1268 ± 0.00117
x1 = 0.7756	-0.09598 ± 0.000932
x1 = 0.8217	-0.0766 ± 0.000789
x1 = 0.8736	-0.0537 ± 0.000598
x1 = 0.9325	-0.0274 ± 0.000406

CCOCCOCC [1,2-diethoxyethane] + OCc1ccccc1
[2]
Settings	excess molar enthalpy [kcal/mol]
x1 = 0.0296	-0.0118 ± 0.000287
x1 = 0.0575	-0.0292 ± 0.000406
x1 = 0.0838	-0.0483 ± 0.00055
x1 = 0.1087	-0.0659 ± 0.000693
x1 = 0.1546	-0.09515 ± 0.000932
x1 = 0.196	-0.1143 ± 0.00108
x1 = 0.2678	-0.1312 ± 0.0012
x1 = 0.3278	-0.1323 ± 0.00122
x1 = 0.4225	-0.1224 ± 0.00112
x1 = 0.5232	-0.1073 ± 0.00103
x1 = 0.594	-0.09457 ± 0.000908
x1 = 0.687	-0.0683 ± 0.000717
x1 = 0.7453	-0.0439 ± 0.000526
x1 = 0.8144	-0.0092 ± 0.000263
x1 = 0.8541	0.0102 ± 0.000263
x1 = 0.8977	0.0262 ± 0.000382
x1 = 0.9461	0.0297 ± 0.000406

CCOCCOCCOCCO [2-(2-(2-ethoxyethoxy)ethoxy)ethanol] + OCc1ccccc1
[2]
Settings	excess molar enthalpy [kcal/mol]
x1 = 0.0241	-0.0471 ± 0.00055
x1 = 0.047	-0.08444 ± 0.000837
x1 = 0.0689	-0.1138 ± 0.00108
x1 = 0.0898	-0.1373 ± 0.00124
x1 = 0.129	-0.1713 ± 0.00151
x1 = 0.1648	-0.1944 ± 0.0017
x1 = 0.2284	-0.2216 ± 0.00191
x1 = 0.283	-0.236 ± 0.00201
x1 = 0.3719	-0.2477 ± 0.0021
x1 = 0.4704	-0.2462 ± 0.0021
x1 = 0.5422	-0.2354 ± 0.00201
x1 = 0.6398	-0.2077 ± 0.00179
x1 = 0.7031	-0.1828 ± 0.0016
x1 = 0.7804	-0.1459 ± 0.00131
x1 = 0.8257	-0.1219 ± 0.00115
x1 = 0.8766	-0.09221 ± 0.000908
x1 = 0.9343	-0.0542 ± 0.000621

CCOCCOCC [1,2-diethoxyethane]
Settings	mass density [kg/m3]
[1]	826.22 ± 0.58

CCOCCOCCOCCO [2-(2-(2-ethoxyethoxy)ethoxy)ethanol]
Settings	mass density [kg/m3]
[1]	1008.8 ± 1

CCOCCOCCO [3,6-dioxa-1-octanol] + OCc1ccccc1
[2]
Settings	excess molar enthalpy [kcal/mol]
x1 = 0.0289	-0.0471 ± 0.00055
x1 = 0.0561	-0.0828 ± 0.000837
x1 = 0.0819	-0.1102 ± 0.00103
x1 = 0.1063	-0.1318 ± 0.0012
x1 = 0.1514	-0.1627 ± 0.00143
x1 = 0.1921	-0.1839 ± 0.0016
x1 = 0.2629	-0.2083 ± 0.00179
x1 = 0.3223	-0.2197 ± 0.00189
x1 = 0.4164	-0.225 ± 0.00194
x1 = 0.517	-0.2142 ± 0.00184
x1 = 0.588	-0.1989 ± 0.00172
x1 = 0.6816	-0.1701 ± 0.00151
x1 = 0.7405	-0.1475 ± 0.00134
x1 = 0.8106	-0.1164 ± 0.00108
x1 = 0.8509	-0.09579 ± 0.000932
x1 = 0.8954	-0.0707 ± 0.000741
x1 = 0.9448	-0.0393 ± 0.000502

CCOCCOCCOCC [diethylene glycol diethyl ether]
Settings	mass density [kg/m3]
[1]	893.08 ± 0.54

OCc1ccccc1 [benzenemethanol] + CCCCOCCCC
[2]
Settings	excess molar enthalpy [kcal/mol]
x2 = 0.0247	-0.0016 ± 0.000191
x2 = 0.0481	0.000239 ± 0.000191
x2 = 0.0705	0.00425 ± 0.000215
x2 = 0.0918	0.00963 ± 0.000263
x2 = 0.1317	0.0222 ± 0.000359
x2 = 0.1682	0.0355 ± 0.000454
x2 = 0.2327	0.0605 ± 0.000645
x2 = 0.288	0.0821 ± 0.000813
x2 = 0.3776	0.1136 ± 0.00108
x2 = 0.4765	0.1406 ± 0.00127
x2 = 0.5482	0.1535 ± 0.00139
x2 = 0.6454	0.1627 ± 0.00143
x2 = 0.7082	0.1645 ± 0.00146
x2 = 0.7845	0.1608 ± 0.00143
x2 = 0.8292	0.1533 ± 0.00136
x2 = 0.8792	0.1362 ± 0.00124
x2 = 0.9357	0.09577 ± 0.000932

CCOCCO [2-ethoxyethan-1-ol] + OCc1ccccc1
[2]
Settings	excess molar enthalpy [kcal/mol]
x1 = 0.0424	-0.0217 ± 0.000359
x1 = 0.0814	-0.0387 ± 0.000478
x1 = 0.1173	-0.0522 ± 0.000598
x1 = 0.1505	-0.0635 ± 0.000669
x1 = 0.21	-0.0803 ± 0.000813
x1 = 0.2617	-0.09209 ± 0.000908
x1 = 0.3471	-0.1055 ± 0.001
x1 = 0.4148	-0.1101 ± 0.00103
x1 = 0.5154	-0.1094 ± 0.00103
x1 = 0.6147	-0.1001 ± 0.000956
x1 = 0.6802	-0.08972 ± 0.000884
x1 = 0.7613	-0.0722 ± 0.000741
x1 = 0.8097	-0.0592 ± 0.000645
x1 = 0.8645	-0.0422 ± 0.000502
x1 = 0.8948	-0.0319 ± 0.00043
x1 = 0.9273	-0.0211 ± 0.000359
x1 = 0.9623	-0.00994 ± 0.000263

CCOCCOCCO [3,6-dioxa-1-octanol]
Settings	mass density [kg/m3]
[1]	974.67 ± 0.52

COCCOC [1,2-dimethoxyethane] + OCc1ccccc1
[2]
Settings	excess molar enthalpy [kcal/mol]
x1 = 0.0395	0.0173 ± 0.000311
x1 = 0.076	0.0136 ± 0.000287
x1 = 0.1098	0.000693 ± 0.000191
x1 = 0.1413	-0.0149 ± 0.000311
x1 = 0.1979	-0.0436 ± 0.000526
x1 = 0.2476	-0.0633 ± 0.000669
x1 = 0.3305	-0.0801 ± 0.000813
x1 = 0.3969	-0.08 ± 0.000813
x1 = 0.4968	-0.0624 ± 0.000669
x1 = 0.5969	-0.0293 ± 0.000406
x1 = 0.6638	0.00306 ± 0.000215
x1 = 0.7476	0.0543 ± 0.000598
x1 = 0.7979	0.08707 ± 0.00086
x1 = 0.8555	0.1169 ± 0.0011
x1 = 0.8876	0.1236 ± 0.00115
x1 = 0.9221	0.1161 ± 0.00108
x1 = 0.9595	0.08243 ± 0.000813

CCOCCO [2-ethoxyethan-1-ol]
Settings	mass density [kg/m3]
[1]	916 ± 0.53

OCCOCCO [diethylene glycol]
Settings	mass density [kg/m3]
[1]	1105.86 ± 0.63

OCc1ccccc1 [benzenemethanol]
Settings	mass density [kg/m3]
[1]	1033.64 ± 0.55
